Experimental findings from patent US10813944B2, “Cyclodextrins as procoagulants” (STICHTING SANQUIN BLOEDVOORZIENING, priority 2016, dated 2020) are described below.

Experiment [1] deals with thrombin generation in pooled normal plasma. The experiment in a line: Calibrated Automated Thrombogram thrombin generation assay in pooled normal plasma. It counts as biochemical, human. To be noted: for procoagulant effect in normal plasma: no anticoagulant, cyclodextrin 100 μM unless otherwise indicated, 1 pM TF. Here is the method:
(§1) FIGS. 3-8, 12, 14-19 and 22-27: Pooled normal plasma was spiked with cyclodextrins (100 μM, unless otherwise indicated) and anticoagulants. The concentrations of the anticoagulants were 100 ng/ml for dabigatran (A), 100 ng/ml for rivaroxaban (B), 60 ng/ml for apixaban (C), 60 ng/ml for edoxaban (D). The plasmas were subjected to thrombin generation analysis as described in the Materials and Methods section with 1 pM tissue factor (TF) as initiator of coagulation.
(§2) The Calibrated Automated Thrombogram® assays the generation of thrombin in clotting plasma using a microtiter plate reading fluorometer (Fluoroskan Ascent, ThermoLab systems, Helsinki, Finland) and Thrombinoscope® software (Thrombinoscope BV, Maastricht, The Netherlands). The assay was carried out as described by Hemker et al. (Pathofysiol. IIaemost. Thromb. 2003, 33, 4-15), and the Thrombinoscope® manual. Coagulation was triggered by recalcification in the presence of 1 or 5 pM recombinant human tissue factor (Innovin®, Siemens, Marburg, Germany), 4 μM phospholipids, and 417 μM fluorogenic substrate Z-Gly-Gly-Arg-AMC (Bachem, Bubendorf, Switzerland). Fluorescence was monitored using the Fluoroskan Ascent fluorometer (ThermoLabsystems, Helsinki, Finland), and the lag time, peak thrombin, velocity index and area under the curve (ETP) were calculated using the Thrombinoscope® software (Thrombinoscope BV).
Thrombin generation analyses were performed in pooled normal plasma with and without the addition of anticoagulants.

The subject of experiment [2] is plasma deficient in coagulation factor IX. The experiment in a line: Thrombin generation assay in plasma deficient in coagulation factor IX. It counts as biochemical, human. Here is the method:
as §2

The test system of experiment [3] is plasma deficient in coagulation factor VIII. The experiment in a line: Thrombin generation assay in plasma deficient in coagulation factor VIII. Type of experiment: biochemical, human. Here is the method: FIG. 20: Plasma deficient in coagulation factor VIII was spiked with cyclodextrin OKL-1111 (A), OKL-1180 (B), and OKL-1187 (C) at the indicated concentrations.
as §2

Experiment [4] relates to thrombin generation in pooled normal plasma spiked with anticoagulants. The experiment in a line: Thrombin generation assay in pooled normal plasma spiked with anticoagulants. It counts as biochemical, human. To be noted: for effect on the anticoagulant effect of apixaban: apixaban 60 ng/ml; for effect on the anticoagulant effect of apixaban / effect on the anticoagulant effect of dabigatran / effect on the anticoagulant effect of edoxaban / effect on the anticoagulant effect of rivaroxaban: cyclodextrin 100 μM, 1 pM TF; for effect on the anticoagulant effect of dabigatran: dabigatran 100 ng/ml; for effect on the anticoagulant effect of edoxaban: edoxaban 60 ng/ml; for effect on the anticoagulant effect of rivaroxaban: rivaroxaban 100 ng/ml. Here is the method: as §1
FIG. 9: Pooled normal plasma was spiked with OKL-1111 (100 μM, unless otherwise indicated (A)) and anticoagulants (B-E). The concentrations of the anticoagulants were 100 ng/ml for dabigatran (B), 100 ng/ml for rivaroxaban (C), 60 ng/ml for apixaban (D), 60 ng/ml for edoxaban (E). The plasmas were subjected to thrombin generation analysis as described in the Materials and Methods section with 1 pM tissue factor (TF) as initiator of coagulation.
FIG. 10: Pooled normal plasma was spiked with OKL-1111 (100 μM) and anticoagulants (A-F). The concentrations of the anticoagulants were 2 μg/ml for fondaparinux (A), 0.4 U/ml for nadroparin (B), 0.1 U/ml for tinzaparin (C), 0.03 U/ml for unfractionated heparin (UFH) (D), 0.5 U/ml for hirudin (E) and 10 μg/ml for bivalirudin (F). The plasmas were subjected to thrombin generation analysis as described in the Materials and Methods section with 1 pM tissue factor (TF) as initiator of coagulation.
as §2

The subject of experiment [5] is mice anticoagulated with rivaroxaban. The experiment in a line: In vivo saphenous vein bleeding model in mice anticoagulated with rivaroxaban. Here is the method: FIG. 29: In vivo analysis of procoagulant potential of OK-1111 and OKL-1147. Except for controls, animals were treated with rivaroxaban for 4 days and cyclodextrins were administered 5 min prior bleeding assay.
All animal protocols were approved by the Institutional Animal Care and Use Committee of the University of North Carolina. C57BL6/J mice were purchased from Charles Rivers Laboratories (Willmington, Mass.). Bleeding studies were done essentially as previously described Pastoft et al. (Haemophilia 2012; 18:782-8). Mice were anesthetized with isoflurane throughout all procedures. The hair on the ventral side of both hind limbs was removed. The animals were placed supine on a temperature and ECG monitoring board. The paws were gently restrained by looping soft polyethylene tubing around them and attaching the tubing to the ECG board. The skin on the left and right ventral hind limb was incised which exposes a length of the saphenous neurovascular bundle; the bundle was covered with normal saline to prevent drying. To assess haemostasis, the right saphenous vein was transected by piercing it with a 23-G needle followed by a longitudinal incision made in the distal portion of the vessel. Blood was gently wicked away until haemostasis occurred. The clot was then removed to restart bleeding and the blood was again wicked away until haemostasis occurs again. Clot disruption was repeated after every incidence of haemostasis for 30 minutes. Mice were fed chow that contained 0.1 mg rivaroxaban per g of chow. The mice were on this diet for 4 days to allow them to reach a steady state. Cyclodextrins were administered by a tail vein injection 5 minutes before the start of the bleeding assay. Two parameters were measured: 1) the number of times that haemostasis occurs in a 30 minute period, and 2) the time required for each haemostasis.

Consider `OCCCSCC1OC2OC3C(CSCCCO)OC(OC4C(CSCCCO)OC(OC5C(CSCCCO)OC(OC6C(CSCCCO)OC(OC7C(CSCCCO)OC(OC8C(CSCCCO)OC(OC1C(O)C2O)C(O)C8O)C(O)C7O)C(O)C6O)C(O)C5O)C(O)C4O)C(O)C3O` (centres unmarked) [OKL-1181], for which, in experiment [1], the “procoagulant effect in normal plasma” value is on record as “significant procoagulant activity”. Also, in experiment [2], the “procoagulant activity in factor IX deficient plasma” value is reported as “procoagulant activity”. Also, the “procoagulant effect in factor VIII deficient plasma” value in experiment [3] is recorded as “procoagulant effects”.

For `OCCCCSCC1OC2OC3C(CO)OC(OC4C(CO)OC(OC5C(CO)OC(OC6C(CO)OC(OC7C(CO)OC(OC8C(CO)OC(OC9C(CO)OC(OC1C(O)C2O)C(O)C9O)C(O)C8O)C(O)C7O)C(O)C6O)C(O)C5O)C(O)C4O)C(O)C3O` (centres unmarked) [OKL-1191], in experiment [4], the “effect on the anticoagulant effect of apixaban” value (from here on “effect … of apixaban”) is listed as “Antagonized”, the “effect on the anticoagulant effect of dabigatran” value (shortened to “effect … of dabigatran”) is “Antagonized”, the “effect on the anticoagulant effect of edoxaban” value (from here on “effect … of edoxaban”) is “Antagonized” and the “effect on the anticoagulant effect of rivaroxaban” value (shortened to “effect … of rivaroxaban”) is “Antagonized”. Further, the “procoagulant effect in normal plasma” value in experiment [1] is listed as “Strong Procoagulant Activity”. For the same compound, in experiment [2], the “procoagulant activity in factor IX deficient plasma” value is reported as “procoagulant activity”. The “procoagulant effect in factor VIII deficient plasma” value in experiment [3] is given as “procoagulant effects”.

As for `O=C(O)CCCCCCSCC1OC2OC3C(CO)OC(OC4C(CO)OC(OC5C(CO)OC(OC6C(CO)OC(OC7C(CO)OC(OC8C(CO)OC(OC1C(O)C2O)C(O)C8O)C(O)C7O)C(O)C6O)C(O)C5O)C(O)C4O)C(O)C3O` (centres unmarked) [OKL-1188], in experiment [4], the “effect … of apixaban” value is on record as “antagonized”, the “effect … of dabigatran” value is “antagonized”, the “effect … of edoxaban” value was “antagonized” and the “effect … of rivaroxaban” value is “antagonized”. Also, the “procoagulant effect in normal plasma” value in experiment [1] is “strong procoagulant effect”. In experiment [2], the “procoagulant activity in factor IX deficient plasma” value is given as “procoagulant activity”. In addition, the “procoagulant effect in factor VIII deficient plasma” value in experiment [3] is given as “procoagulant effects”.

In the case of `O=C(O)CCCCSCC1OC2OC3C(CSCCCCC(=O)O)OC(OC4C(CSCCCCC(=O)O)OC(OC5C(CSCCCCC(=O)O)OC(OC6C(CSCCCCC(=O)O)OC(OC7C(CSCCCCC(=O)O)OC(OC8C(CSCCCCC(=O)O)OC(OC9C(CSCCCCC(=O)O)OC(OC1C(O)C2O)C(O)C9O)C(O)C8O)C(O)C7O)C(O)C6O)C(O)C5O)C(O)C4O)C(O)C3O` (centres unmarked) [OKL-1171], the “procoagulant effect in normal plasma” value in experiment [1] is on record as “significant procoagulant activity”. The “procoagulant effect in factor VIII deficient plasma” value in experiment [3] is given as “procoagulant effects”.

Consider `O=C(NC[C@H]1CN(c2ccc(N3CCOCC3=O)cc2)C(=O)O1)c1ccc(Cl)s1` [rivaroxaban], for which the “number of clots in 30 minutes” value in experiment [5] (mice fed rivaroxaban (0.1 mg per g of chow, 4 days), no cyclodextrin, non-anticoagulated about 20-25) was 10-13 clots. For the same compound, the bleeding time result in experiment [5] (mice fed rivaroxaban versus non-anticoagulated mouse) is “roughly doubled”.

Turning to `OCCCCSCC1OC2OC3C(CO)OC(OC4C(CO)OC(OC5C(CO)OC(OC6C(CO)OC(OC7C(CO)OC(OC8C(CO)OC(OC1C(O)C2O)C(O)C8O)C(O)C7O)C(O)C6O)C(O)C5O)C(O)C4O)C(O)C3O` (centres unmarked) [OKL-1189], in experiment [4], the “effect … of apixaban” value is given as “strongly antagonized”, the “effect … of dabigatran” value is recorded as “strongly antagonized”, the “effect … of edoxaban” value was “strongly antagonized” and the “effect … of rivaroxaban” value is reported as “strongly antagonized”. In addition, in experiment [1], the “procoagulant effect in normal plasma” value is recorded as “strong procoagulant activity”. Further, the “procoagulant activity in factor IX deficient plasma” value in experiment [2] was “procoagulant activity”. Moreover, in experiment [3], the “procoagulant effect in factor VIII deficient plasma” value is given as “procoagulant effects”.

As to `OCCCCSCC1OC2OC3C(CSCCCCO)OC(OC4C(CSCCCCO)OC(OC5C(CSCCCCO)OC(OC6C(CSCCCCO)OC(OC7C(CSCCCCO)OC(OC8C(CSCCCCO)OC(OC9C(CSCCCCO)OC(OC1C(O)C2O)C(O)C9O)C(O)C8O)C(O)C7O)C(O)C6O)C(O)C5O)C(O)C4O)C(O)C3O` (centres unmarked) [OKL-1174], in experiment [4], the “procoagulant effect in plasma containing anticoagulants (not specified / NOACs)” value is on record as “strong procoagulant effects”. Moreover, in experiment [1], the “procoagulant effect in normal plasma” value is given as “strong procoagulant effects”. Also, in experiment [2], the “procoagulant activity in factor IX deficient plasma” value was “procoagulant activity”. The “procoagulant effect in factor VIII deficient plasma” value in experiment [3] is reported as “procoagulant effects”.

As to `NCC1OC2OC3C(CN)OC(OC4C(CN)OC(OC5C(CN)OC(OC6C(CN)OC(OC7C(CN)OC(OC8C(CN)OC(OC9C(CN)OC(OC1C(O)C2O)C(O)C9O)C(O)C8O)C(O)C7O)C(O)C6O)C(O)C5O)C(O)C4O)C(O)C3O` (centres unmarked) [OKL-1147, reference compound], in experiment [1], the “procoagulant effect in normal plasma” value is “no procoagulant effect”. In experiment [5] (mice fed rivaroxaban for 4 days, cyclodextrin by tail vein injection 5 min before bleeding assay, OKL-1111 dose expected to give 25 μM in plasma), the clotting times entry was “without any significant effect”.

Turning to `O=C(O)CCCCCSCC1OC2OC3C(CO)OC(OC4C(CO)OC(OC5C(CO)OC(OC6C(CO)OC(OC7C(CO)OC(OC8C(CO)OC(OC1C(O)C2O)C(O)C8O)C(O)C7O)C(O)C6O)C(O)C5O)C(O)C4O)C(O)C3O` (centres unmarked) [OKL-1108], in experiment [4], the “effect … of apixaban” value is reported as “antagonized”, the “effect … of dabigatran” value is on record as “antagonized”, the “effect … of edoxaban” value was “antagonized” and the “effect … of rivaroxaban” value is on record as “antagonized”. The “procoagulant effect in normal plasma” value in experiment [1] is reported as “substantial procoagulant effect”.

On to `O=C(O)CCCCCCSCC1OC2OC3C(CSCCCCCCC(=O)O)OC(OC4C(CSCCCCCCC(=O)O)OC(OC5C(CSCCCCCCC(=O)O)OC(OC6C(CSCCCCCCC(=O)O)OC(OC7C(CSCCCCCCC(=O)O)OC(OC8C(CSCCCCCCC(=O)O)OC(OC9C(CSCCCCCCC(=O)O)OC(OC1C(O)C2O)C(O)C9O)C(O)C8O)C(O)C7O)C(O)C6O)C(O)C5O)C(O)C4O)C(O)C3O` (centres unmarked) [OKL-1172], for which the “procoagulant effect in normal plasma” value in experiment [1] is recorded as “significant procoagulant activity”. For the same compound, in experiment [2], the “procoagulant activity in factor IX deficient plasma” value is recorded as “procoagulant activity”. The “procoagulant effect in factor VIII deficient plasma” value in experiment [3] is given as “procoagulant effects”.

With `O=C(O)CCSCC1OC2OC3C(CO)OC(OC4C(CO)OC(OC5C(CO)OC(OC6C(CO)OC(OC7C(CO)OC(OC8C(CO)OC(OC1C(O)C2O)C(O)C8O)C(O)C7O)C(O)C6O)C(O)C5O)C(O)C4O)C(O)C3O` (centres unmarked) [OKL-1100, reference compound], in experiment [4], the “procoagulant effect in plasma containing anticoagulants (not specified / NOACs)” value is “did not show procoagulant activity”. Also, the “procoagulant effect in normal plasma” value in experiment [1] was “did not show procoagulant activity”. For the same compound, the “procoagulant activity (overview)” value in experiment [1] (pooled normal plasma with and without the addition of anticoagulants) was “No”.

As to `O=C(O)CCCCCCSCC1OC2OC3C(CO)OC(OC4C(CO)OC(OC5C(CO)OC(OC6C(CO)OC(OC7C(CO)OC(OC8C(CO)OC(OC9C(CO)OC(OC1C(O)C2O)C(O)C9O)C(O)C8O)C(O)C7O)C(O)C6O)C(O)C5O)C(O)C4O)C(O)C3O` (centres unmarked) [OKL-1190], in experiment [4], the “effect … of apixaban” value is “antagonized”, the “effect … of dabigatran” value was “antagonized”, the “effect … of edoxaban” value is given as “antagonized” and the “effect … of rivaroxaban” value is “antagonized”. The “procoagulant effect in normal plasma” value in experiment [1] is reported as “procoagulant effect”.
